Columns and labels:
Assay in all cases: Premier Screen kinase panel (MRC PPU)
Type in all cases: biochemical
PKD1 = PKD1 (Homo sapiens, UniProt Q15139); conditions: PKD1 (Entrez PKD1), read-out: Residual activity (%)
Procedure: (§1) room temperature with shaking for 30 minutes. The kinase concentration in the eluates was measured by qPCR.
(§2) using ADP-GloTM assay at the MRC PPU International Centre for Kinase Profiling, University of Dundee.
(§3) Conducted by MRC PPU International Centre
(§4) Conducted by MRC PPU International Centre for […]

CDK2-Cyclin A = CDK2-Cyclin A (Homo sapiens, UniProt P24941); conditions: CDK2-Cyclin A (Entrez CDK2 + CCNA2), read-out: Residual activity (%)
Procedure: as §1, §2, §3, §4

TESK1 = TESK1 (Homo sapiens, UniProt Q15569); conditions: TESK1 (Entrez TESK1), read-out: Residual activity (%)
Procedure: as §1, §2, §3, §4

TBK1 = TBK1 (Homo sapiens, UniProt Q9UHD2); conditions: TBK1 (Entrez TBK1), read-out: Residual activity (%)
Procedure: as §1, §2, §3, §4

MKK2 = MKK2 (Homo sapiens, UniProt P36507); conditions: MKK2 (Entrez MAP2K2), read-out: Residual activity (%)
Procedure: as §1, §2, §3, §4

GCK = GCK (Homo sapiens, UniProt Q12851); conditions: read-out: Residual activity (%)
Procedure: as §1, §2, §3, §4

RSK1 = RSK1 (Homo sapiens, UniProt Q15418); conditions: RSK1 (Entrez RPS6KA1), read-out: Residual activity (%)
Procedure: as §1, §2, §3, §4

FGF-R1 = FGF-R1 (Homo sapiens, UniProt P11362); conditions: FGF-R1 (Entrez FGFR1), read-out: Residual activity (%)
Procedure: as §1, §2, §3, §4

ULK1 = ULK1 (Homo sapiens, UniProt O75385); conditions: ULK1 (Entrez ULK1), read-out: Residual activity (%)
Procedure: as §1, §2, §3, §4

MARK2 = MARK2 (Homo sapiens, UniProt Q7KZI7); conditions: MARK2 (Entrez MARK2), read-out: Residual activity (%)
Procedure: as §1, §2, §3, §4

MKK1 = MKK1 (Homo sapiens, UniProt Q02750); conditions: MKK1 (Entrez MAP2K1), read-out: Residual activity (%)
MKK1, sequence (Q02750 whole entry): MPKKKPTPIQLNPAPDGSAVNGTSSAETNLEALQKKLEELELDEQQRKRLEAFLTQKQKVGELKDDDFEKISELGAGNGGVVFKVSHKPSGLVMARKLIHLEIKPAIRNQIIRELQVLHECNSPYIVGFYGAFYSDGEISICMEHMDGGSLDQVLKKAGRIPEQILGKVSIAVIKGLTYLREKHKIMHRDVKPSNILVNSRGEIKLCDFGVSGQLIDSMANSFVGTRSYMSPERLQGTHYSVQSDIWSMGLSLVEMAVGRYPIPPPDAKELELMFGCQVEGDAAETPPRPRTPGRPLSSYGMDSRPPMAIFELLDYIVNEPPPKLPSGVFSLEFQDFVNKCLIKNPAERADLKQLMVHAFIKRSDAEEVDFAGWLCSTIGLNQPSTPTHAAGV
Procedure: as §1, §2, §3, §4

MPSK1 = MPSK1 (Homo sapiens, UniProt O75716); conditions: MPSK1 (Entrez STK16), read-out: Residual activity (%)
Procedure: as §1, §2, §3, §4

CHK2 = CHK2 (Homo sapiens, UniProt O96017); conditions: CHK2 (Entrez CHEK2), read-out: Residual activity (%)
CHK2, sequence (O96017 whole entry): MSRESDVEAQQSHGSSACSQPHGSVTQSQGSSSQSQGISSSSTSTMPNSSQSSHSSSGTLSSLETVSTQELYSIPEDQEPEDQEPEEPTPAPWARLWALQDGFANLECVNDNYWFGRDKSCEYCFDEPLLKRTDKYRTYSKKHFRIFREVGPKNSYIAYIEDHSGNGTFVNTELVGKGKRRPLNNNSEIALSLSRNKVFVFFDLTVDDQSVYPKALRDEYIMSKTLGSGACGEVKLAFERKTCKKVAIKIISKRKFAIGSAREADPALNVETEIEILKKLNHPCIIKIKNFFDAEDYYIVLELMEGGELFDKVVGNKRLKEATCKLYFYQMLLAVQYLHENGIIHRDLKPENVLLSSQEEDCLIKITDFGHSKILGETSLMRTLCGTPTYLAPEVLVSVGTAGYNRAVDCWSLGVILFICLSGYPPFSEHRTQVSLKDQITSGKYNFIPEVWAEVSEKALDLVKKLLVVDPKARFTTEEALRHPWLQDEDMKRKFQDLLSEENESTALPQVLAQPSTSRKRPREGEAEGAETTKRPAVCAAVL
Procedure: as §1, §2, §3, §4

NEK6 = NEK6 (Homo sapiens, UniProt Q9HC98); conditions: NEK6 (Entrez NEK6), read-out: Residual activity (%)
Procedure: as §1, §2, §3, §4

PIM3 = PIM3 (Homo sapiens, UniProt Q86V86); conditions: PIM3 (Entrez PIM3), read-out: Residual activity (%)
Procedure: as §1, §2, §3, §4

DYRK2 = DYRK2 (Homo sapiens, UniProt Q92630); conditions: DYRK2 (Entrez DYRK2), read-out: Residual activity (%)
Procedure: as §1, §2, §3, §4

ULK2 = ULK2 (Homo sapiens, UniProt Q8IYT8); conditions: ULK2 (Entrez ULK2), read-out: Residual activity (%)
ULK2, sequence (Q8IYT8 whole entry): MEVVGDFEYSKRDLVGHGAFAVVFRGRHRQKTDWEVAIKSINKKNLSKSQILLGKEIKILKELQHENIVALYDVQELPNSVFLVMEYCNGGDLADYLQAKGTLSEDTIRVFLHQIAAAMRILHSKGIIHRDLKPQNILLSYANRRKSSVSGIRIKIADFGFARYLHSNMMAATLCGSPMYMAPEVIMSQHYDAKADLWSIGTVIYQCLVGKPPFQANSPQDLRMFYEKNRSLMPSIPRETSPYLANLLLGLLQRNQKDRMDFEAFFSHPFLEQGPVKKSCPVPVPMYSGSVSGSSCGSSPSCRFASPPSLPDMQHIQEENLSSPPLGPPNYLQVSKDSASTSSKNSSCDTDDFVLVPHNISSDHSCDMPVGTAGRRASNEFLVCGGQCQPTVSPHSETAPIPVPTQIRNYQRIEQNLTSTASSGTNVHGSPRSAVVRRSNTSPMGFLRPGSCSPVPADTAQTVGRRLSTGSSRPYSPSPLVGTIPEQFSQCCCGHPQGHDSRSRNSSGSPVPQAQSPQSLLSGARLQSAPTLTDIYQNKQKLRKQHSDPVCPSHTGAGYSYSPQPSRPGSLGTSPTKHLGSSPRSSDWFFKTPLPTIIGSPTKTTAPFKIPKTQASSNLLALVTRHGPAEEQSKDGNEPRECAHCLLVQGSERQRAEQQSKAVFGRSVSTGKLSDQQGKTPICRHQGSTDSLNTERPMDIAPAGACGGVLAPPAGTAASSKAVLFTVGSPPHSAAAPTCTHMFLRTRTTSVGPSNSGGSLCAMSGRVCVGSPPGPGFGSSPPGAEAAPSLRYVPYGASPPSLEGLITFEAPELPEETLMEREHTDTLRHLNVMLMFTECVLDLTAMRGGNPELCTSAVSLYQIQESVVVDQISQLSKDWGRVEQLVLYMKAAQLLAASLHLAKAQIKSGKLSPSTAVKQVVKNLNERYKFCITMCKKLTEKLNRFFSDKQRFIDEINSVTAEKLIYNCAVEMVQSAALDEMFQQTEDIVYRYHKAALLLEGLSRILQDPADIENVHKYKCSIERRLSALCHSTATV
Procedure: as §1, §2, §3, §4

TrkA = TrkA (Homo sapiens, UniProt P04629); conditions: TrkA (Entrez NTRK1), read-out: Residual activity (%)
TrkA, sequence (P04629 33-796): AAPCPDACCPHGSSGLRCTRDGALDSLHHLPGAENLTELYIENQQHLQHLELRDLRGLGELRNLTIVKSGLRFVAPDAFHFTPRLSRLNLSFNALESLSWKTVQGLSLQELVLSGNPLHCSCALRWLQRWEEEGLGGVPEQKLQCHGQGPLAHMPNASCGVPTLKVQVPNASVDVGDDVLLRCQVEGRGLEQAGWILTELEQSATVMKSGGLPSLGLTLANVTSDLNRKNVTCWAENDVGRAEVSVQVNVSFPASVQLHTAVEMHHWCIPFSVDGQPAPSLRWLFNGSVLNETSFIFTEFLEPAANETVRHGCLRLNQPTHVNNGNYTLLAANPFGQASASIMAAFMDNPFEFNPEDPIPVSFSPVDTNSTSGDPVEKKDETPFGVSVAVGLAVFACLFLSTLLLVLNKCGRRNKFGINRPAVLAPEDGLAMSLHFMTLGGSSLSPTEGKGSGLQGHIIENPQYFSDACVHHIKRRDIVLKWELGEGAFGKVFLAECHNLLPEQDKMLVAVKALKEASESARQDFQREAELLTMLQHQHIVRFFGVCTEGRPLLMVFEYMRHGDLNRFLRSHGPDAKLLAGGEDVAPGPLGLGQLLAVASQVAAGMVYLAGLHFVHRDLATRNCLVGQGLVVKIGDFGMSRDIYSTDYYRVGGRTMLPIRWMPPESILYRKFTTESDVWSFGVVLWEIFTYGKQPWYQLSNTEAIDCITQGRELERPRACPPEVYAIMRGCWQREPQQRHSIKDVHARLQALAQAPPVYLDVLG
Procedure: as §1, §2, §3, §4

CAMKKb = CAMKKb (Homo sapiens, UniProt Q96RR4); conditions: CAMKKb (Entrez CAMKK2), read-out: Residual activity (%)
Procedure: as §1, §2, §3, §4

TAK1 = TAK1 (Homo sapiens, UniProt O43318); conditions: TAK1 (Entrez MAP3K7), read-out: Residual activity (%)
Procedure: as §1, §2, §3, §4

BRSK2 = BRSK2 (Homo sapiens, UniProt Q8IWQ3); conditions: BRSK2 (Entrez BRSK2), read-out: Residual activity (%)
BRSK2, sequence (Q8IWQ3 whole entry): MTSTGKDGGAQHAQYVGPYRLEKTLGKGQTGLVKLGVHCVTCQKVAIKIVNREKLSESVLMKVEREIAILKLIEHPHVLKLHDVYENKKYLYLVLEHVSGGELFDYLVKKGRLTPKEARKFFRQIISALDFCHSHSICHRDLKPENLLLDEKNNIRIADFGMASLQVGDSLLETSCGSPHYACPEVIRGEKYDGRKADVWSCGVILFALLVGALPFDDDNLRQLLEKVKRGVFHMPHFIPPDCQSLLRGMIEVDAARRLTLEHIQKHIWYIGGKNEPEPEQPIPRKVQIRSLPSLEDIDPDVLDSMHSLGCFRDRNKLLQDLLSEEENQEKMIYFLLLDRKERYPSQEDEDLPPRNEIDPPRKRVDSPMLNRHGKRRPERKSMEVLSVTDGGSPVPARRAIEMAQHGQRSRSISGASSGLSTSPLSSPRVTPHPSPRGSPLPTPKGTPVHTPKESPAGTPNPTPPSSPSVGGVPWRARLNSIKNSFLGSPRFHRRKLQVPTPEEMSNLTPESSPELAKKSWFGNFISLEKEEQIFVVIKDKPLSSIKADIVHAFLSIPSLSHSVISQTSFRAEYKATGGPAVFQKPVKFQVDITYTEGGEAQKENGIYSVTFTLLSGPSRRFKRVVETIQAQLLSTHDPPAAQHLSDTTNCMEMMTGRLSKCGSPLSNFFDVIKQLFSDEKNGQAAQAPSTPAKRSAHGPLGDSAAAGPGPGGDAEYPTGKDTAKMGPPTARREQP
Procedure: as §1, §2, §3, §4

MAP4K5 = MAP4K5 (Homo sapiens, UniProt Q9Y4K4); conditions: MAP4K5 (Entrez MAP4K5), read-out: Residual activity (%)
Procedure: as §1, §2, §3, §4

DYRK3 = DYRK3 (Homo sapiens, UniProt O43781); conditions: DYRK3 (Entrez DYRK3), read-out: Residual activity (%)
DYRK3, sequence (O43781 whole entry, species assumed): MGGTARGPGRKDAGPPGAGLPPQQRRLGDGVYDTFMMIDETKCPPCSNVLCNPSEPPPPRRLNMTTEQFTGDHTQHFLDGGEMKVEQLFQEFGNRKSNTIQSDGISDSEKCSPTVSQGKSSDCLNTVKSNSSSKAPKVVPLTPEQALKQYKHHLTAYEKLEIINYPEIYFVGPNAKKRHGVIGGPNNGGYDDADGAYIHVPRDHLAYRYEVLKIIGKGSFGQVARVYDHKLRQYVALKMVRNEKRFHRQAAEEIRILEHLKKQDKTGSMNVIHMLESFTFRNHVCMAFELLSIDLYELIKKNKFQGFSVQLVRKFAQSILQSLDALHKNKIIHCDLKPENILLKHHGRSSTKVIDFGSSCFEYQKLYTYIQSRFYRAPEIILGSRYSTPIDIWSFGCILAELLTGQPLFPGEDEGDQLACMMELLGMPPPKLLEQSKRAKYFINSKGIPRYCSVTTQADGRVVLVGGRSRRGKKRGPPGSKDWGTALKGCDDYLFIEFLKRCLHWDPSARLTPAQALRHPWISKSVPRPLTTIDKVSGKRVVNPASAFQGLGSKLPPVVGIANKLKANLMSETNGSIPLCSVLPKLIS
Procedure: as §1, §2, §3, §4

ABL = ABL (Homo sapiens, UniProt P00519); conditions: ABL (Entrez ABL1), read-out: Residual activity (%)
Procedure: as §1, §2, §3, §4

PINK = PINK (Tribolium castaneum, UniProt D6WMX4); conditions: PINK (Entrez PINK1), read-out: Residual activity (%)
PINK, sequence (D6WMX4 6-570): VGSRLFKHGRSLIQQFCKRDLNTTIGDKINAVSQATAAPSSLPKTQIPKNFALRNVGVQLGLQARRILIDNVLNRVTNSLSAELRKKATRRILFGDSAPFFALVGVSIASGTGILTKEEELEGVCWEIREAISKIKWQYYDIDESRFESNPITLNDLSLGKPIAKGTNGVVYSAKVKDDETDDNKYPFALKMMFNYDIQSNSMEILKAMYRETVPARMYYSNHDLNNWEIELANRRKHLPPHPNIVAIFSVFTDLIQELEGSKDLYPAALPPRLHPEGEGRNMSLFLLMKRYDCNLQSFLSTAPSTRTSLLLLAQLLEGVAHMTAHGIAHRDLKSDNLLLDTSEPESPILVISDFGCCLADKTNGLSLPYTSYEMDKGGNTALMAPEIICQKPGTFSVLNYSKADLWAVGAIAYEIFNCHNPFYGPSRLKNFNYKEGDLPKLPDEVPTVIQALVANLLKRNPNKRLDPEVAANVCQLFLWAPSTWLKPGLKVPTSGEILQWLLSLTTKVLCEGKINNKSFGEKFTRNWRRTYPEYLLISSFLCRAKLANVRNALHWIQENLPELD
Procedure: as §1, §2, §3, §4

PKA = PKA (Homo sapiens, UniProt P17612); conditions: PKA (Entrez PRKAC), read-out: Residual activity (%)
Procedure: as §1, §2, §3, §4

PKCa = PKCa (Homo sapiens, UniProt P17252); conditions: PKCa (Entrez PRKCA), read-out: Residual activity (%)
Procedure: as §1, §2, §3, §4

ROCK 2 = ROCK 2 (Rattus norvegicus, UniProt Q62868); conditions: ROCK 2 (Entrez ROCK2), read-out: Residual activity (%)
Procedure: as §1, §2, §3, §4

TGFBR1 = TGFBR1 (Homo sapiens, UniProt P36897); conditions: TGFBR1 (Entrez TGFBR1), read-out: Residual activity (%)
Procedure: as §1, §2, §3, §4

HIPK1 = HIPK1 (Homo sapiens, UniProt Q86Z02); conditions: HIPK1 (Entrez HIPK1), read-out: Residual activity (%)
Procedure: as §1, §2, §3, §4

JNK1 = JNK1 (Homo sapiens, UniProt P45983); conditions: JNK1 (Entrez MAPK8), read-out: Residual activity (%)
Procedure: as §1, §2, §3, §4

SMILES: COc1ccc(Nc2ncnc3c2ccn3-c2ccc(C)c(C)c2)cc1Cl [compound 36]
- remaining activity at 1 µM (PKD1): 93%
- remaining activity at 1 µM (CDK2-Cyclin A): 100%
- remaining activity at 1 µM (TESK1): 88%
- remaining activity at 1 µM (TBK1): 92%
- remaining activity at 1 µM (MKK2): 82%
- remaining activity at 1 µM (GCK): 105%
- remaining activity at 1 µM (RSK1): 109%
- remaining activity at 1 µM (FGF-R1): 95%
- remaining activity at 1 µM (ULK1): 102%
- remaining activity at 1 µM (MARK2): 127%
- remaining activity at 1 µM (MKK1): 112%
- remaining activity at 1 µM (MPSK1): 96%
- remaining activity at 1 µM (CHK2): 96%
- remaining activity at 1 µM (NEK6): 104%
- remaining activity at 1 µM (PIM3): 87%
- remaining activity at 1 µM (DYRK2): 108%
- remaining activity at 1 µM (ULK2): 92%
- remaining activity at 1 µM (TrkA): 85%
- remaining activity at 1 µM (CAMKKb): 96%
- remaining activity at 1 µM (TAK1): 91%
- remaining activity at 1 µM (BRSK2): 111%
- remaining activity at 1 µM (MAP4K5): 80%
- remaining activity at 1 µM (DYRK3): 68%
- remaining activity at 1 µM (ABL): 89%
- remaining activity at 1 µM (PINK): 73%
- remaining activity at 1 µM (PKA): 80%
- remaining activity at 1 µM (PKCa): 96%
- remaining activity at 1 µM (ROCK 2): 96%
- remaining activity at 1 µM (TGFBR1): 87%
- remaining activity at 1 µM (HIPK1): 104%
- remaining activity at 1 µM (JNK1): 85%
